# Test results taken from PubChem BioAssay AID2060624 (Molecular Pharmacology Branch, DTP, NCI, 2025).
# System: 217524-143-R1-J4-PDC spheroids with HUVEC/MSC, viability
# Experiment: Anticancer human tumor 217524-143-R1-J4-PDC patient-derived pancreatic carcinoma cell line growth inhibition [CLK]
# Details: for IC50: curve of first compound; for viability, T/C: stronger effect = lower value
# Summary of the method: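 Patient-derived tumor cells grown as complex spheroids with HUVEC endothelial cells and mesenchymal stem cells, treated with drug combinations. Concentrations descend in half-log steps from near clinical Cmax, or from 10 microM if Cmax unknown.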
# 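Also: spheroids exposed to agents for seven days before reading.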
# 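For viability, T/C in this document: 100% = DMSO vehicle control viability.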
structure (smiles),measurement,setting,value
COc1ccc([C@@H](O)c2cc(-c3ncnc4cc(N5CCOCC5)ccc34)c(F)cc2Cl)nn1 + CNC(=O)c1ccc(Nc2nc(OC3CCCC3)c3c(-c4ccc5nc(C)oc5c4)c[nH]c3n2)c(OC)c1,IC50,second compound 0.0316 µM,0.813 µM
same,IC50,second compound 0.1 µM,< 0.0316 µM
same,IC50,second compound 0.316 µM,< 0.0316 µM
same,IC50,second compound 1 µM,< 0.0316 µM
same,IC50,second compound 3.16 µM,< 0.0316 µM
same,IC50,second compound 10 µM,< 0.0316 µM
same,"viability, T/C","second compound 0.0316 µM, first compound 0.0316 µM",95.4%
same,"viability, T/C","second compound 0.0316 µM, first compound 0.1 µM",72%
same,"viability, T/C","second compound 0.0316 µM, first compound 0.316 µM",66%
same,"viability, T/C","second compound 0.0316 µM, first compound 1 µM",50.4%
same,"viability, T/C","second compound 0.0316 µM, first compound 3.16 µM",27.6%
same,"viability, T/C","second compound 0.0316 µM, first compound 10 µM",10.6%
same,"viability, T/C","second compound 0.1 µM, first compound 0.0316 µM",43.1%
same,"viability, T/C","second compound 0.1 µM, first compound 0.1 µM",34.6%
same,"viability, T/C","second compound 0.1 µM, first compound 0.316 µM",32%
same,"viability, T/C","second compound 0.1 µM, first compound 1 µM",27.9%
same,"viability, T/C","second compound 0.1 µM, first compound 3.16 µM",19.3%
same,"viability, T/C","second compound 0.1 µM, first compound 10 µM",9.43%
same,"viability, T/C","second compound 0.316 µM, first compound 0.0316 µM",39.8%
same,"viability, T/C","second compound 0.316 µM, first compound 0.1 µM",28.4%
same,"viability, T/C","second compound 0.316 µM, first compound 0.316 µM",27.4%
same,"viability, T/C","second compound 0.316 µM, first compound 1 µM",20.8%
same,"viability, T/C","second compound 0.316 µM, first compound 3.16 µM",13.3%
same,"viability, T/C","second compound 0.316 µM, first compound 10 µM",7.35%
same,"viability, T/C","second compound 1 µM, first compound 0.0316 µM",32%
same,"viability, T/C","second compound 1 µM, first compound 0.1 µM",22.9%
same,"viability, T/C","second compound 1 µM, first compound 0.316 µM",23.3%
same,"viability, T/C","second compound 1 µM, first compound 1 µM",13.6%
same,"viability, T/C","second compound 1 µM, first compound 3.16 µM",11.8%
same,"viability, T/C","second compound 1 µM, first compound 10 µM",5.29%
same,"viability, T/C","second compound 3.16 µM, first compound 0.0316 µM",25.6%
same,"viability, T/C","second compound 3.16 µM, first compound 0.1 µM",27%
same,"viability, T/C","second compound 3.16 µM, first compound 0.316 µM",20.2%
same,"viability, T/C","second compound 3.16 µM, first compound 1 µM",16.9%
same,"viability, T/C","second compound 3.16 µM, first compound 3.16 µM",10.3%
same,"viability, T/C","second compound 3.16 µM, first compound 10 µM",4.64%
same,"viability, T/C","second compound 10 µM, first compound 0.0316 µM",24.8%
same,"viability, T/C","second compound 10 µM, first compound 0.1 µM",23.6%
same,"viability, T/C","second compound 10 µM, first compound 0.316 µM",20.7%
same,"viability, T/C","second compound 10 µM, first compound 1 µM",13.8%
same,"viability, T/C","second compound 10 µM, first compound 3.16 µM",9.68%
same,"viability, T/C","second compound 10 µM, first compound 10 µM",5.01%
